The molecules below were run against T1, CKα1 (Homo sapiens, UniProt P35790) (assay: Choline kinase assay ([methyl-14C]choline into PCho, purified enzyme)). Details: concentration required to inhibit CKα1 enzyme by 50%.
T1 construct: an N-terminally His-tagged truncated form of CKα1 (Δ75–457) was cloned into a pET-28a vector; His tag (N); made in house; host or cells: E. coli BL21 (DE3) Star
Type: biochemical
Description: The protein was produced and purified as previously described. Briefly, an N-terminally His-tagged truncated form of CKα1 (Δ75–457) was cloned into a pET-28a vector and expressed at 37 °C in E. coli BL21 (DE3) Star cells using 1 mM isopropyl β-D-1-thiogalactopyranoside (IPTG). After centrifugation, the cellular pellet was resuspended in 50 mM Tris-HCl pH 7.5, 500 mM NaCl, 0.2 mM phenylmethylsulphonyl fluoride (PMSF), DNase, and 0.5 mM β-mercaptoethanol, sonicated and subjected to a two-step purification procedure to isolate the target enzyme. […] Protein elution was completed using buffer A + 400 mM imidazole. A second size-exclusion chromatography step was then carried out to achieve complete purity. To this end, we used a HiPrep 26/60 Sephacryl 100 HR column (GE Healthcare, Little Chalfont, Buckinghamshire, UK) and a 20 mM Tris/HCl pH 7.5, 150 mM NaCl running buffer.
To study the effect of the compounds on CKα, an in vitro enzymatic assay was performed using the purified enzyme as previously reported in [19, 28, 29]. Briefly, the incorporation of ^14C from [methyl-^14C]choline into PCho in either the absence (control) or presence of different inhibitors at varying concentrations was used to determine the CK activity. The reaction mixture included 20 ng of purified CKα1, 10 mM ATP, 10 mM MgCl2, 100 mM Tris-HCl pH 8.5, and increasing concentrations of compounds. The mixture was preincubated at 37 °C for 5 min. Then, [methyl-^14C]choline chloride (1 mM, 4500 dpm/nmol) was added and the reaction was left to proceed for 10 min at 37 °C. The assay was stopped by immersing the reaction tubes in boiling water. PCho was separated by Thin Layer Chromatography using methanol/0.6% NaCl/28% NH4OH in water (50:50:5, v/v/v) as solvent. The radioactivity associated into PCho was determined in a Beckman 6000-TA (Madrid, Spain) liquid scintillation counter. The 50% inhibitory concentrations (IC50 values) were determined from the % enzyme activity at different concentrations of synthetic inhibitors relative to the control by using a sigmoidal dose–response curve (ED50plus v1.0 software).

T1 sequence (P35790 75-457): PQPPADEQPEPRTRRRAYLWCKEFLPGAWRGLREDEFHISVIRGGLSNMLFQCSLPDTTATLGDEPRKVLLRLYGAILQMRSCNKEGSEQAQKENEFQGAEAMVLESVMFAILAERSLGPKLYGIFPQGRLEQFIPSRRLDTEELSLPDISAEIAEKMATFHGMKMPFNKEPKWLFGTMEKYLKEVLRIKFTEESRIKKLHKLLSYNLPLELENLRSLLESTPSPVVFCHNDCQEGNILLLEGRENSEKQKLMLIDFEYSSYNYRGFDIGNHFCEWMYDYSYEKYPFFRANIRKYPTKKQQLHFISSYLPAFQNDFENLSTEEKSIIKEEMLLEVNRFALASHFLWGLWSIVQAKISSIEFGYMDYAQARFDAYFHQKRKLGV

Row | Structure (SMILES) | IC50 [nM]
1 | [Br-].[Br-].c1cc2c(N3CCCCC3)nc[n+](Cc3ccc(-c4ccc(C[n+]5cnc(N6CCCCC6)c6ccsc65)cc4)cc3)c2s1 [Fg-30] | ≥ 5000
2 | CN(C)c1cc[n+](Cc2ccc(CCCCc3ccc(C[n+]4ccc(N(C)C)cc4)cc3)cc2)cc1 [MN-48b, reference compound] | 780 ± 30

Same assay, conditions: purified CKα1, inhibitor 10 µM, end-point assay

Row | Structure (SMILES) | % Inhibition at 10 µM [%]
3 | [Br-].[Br-].c1cc2c(N3CCCCC3)nc[n+](Cc3ccc(-c4ccc(C[n+]5cnc(N6CCCCC6)c6ccsc65)cc4)cc3)c2s1 [Fg-30] | 75.46

Same assay, conditions: purified CKα1, inhibitor 30 µM, end-point assay

Row | Structure (SMILES) | % Inhibition at 30 µM [%]
4 | [Br-].[Br-].c1cc2c(N3CCCCC3)nc[n+](Cc3ccc(-c4ccc(C[n+]5cnc(N6CCCCC6)c6ccsc65)cc4)cc3)c2s1 [Fg-30] | 85.71

Each molecule was assayed on SEM cells (assay: Antiproliferative activity, resazurin assay, 72 h). Details: not given.
Type: cell-based, human
Description: (§1) Human cervix carcinoma (HeLa), Non-small lung adenocarcinoma (A549), Colon adenocarcinoma (HT29), and human triple negative breast cancer (MDA-MB-231) were cultured in Dulbecco’s modified Eagle’s media (DMEM). B-acute lymphoblastic leukemia (RS4;11 and SEM), T-acute lymphoblastic leukemia (Jurkat), and human promyelocytic cells (HL-60), were cultured in RPMI-1640 medium. Both media were purchased from Gibco, Life Technologies (Milan, Italy) and supplemented with 10% Fetal Bovine Serum (FBS, Invitrogen, Milan, Italy,). Every six months, each cell line was checked for the presence of mycoplasma by RT-PCR.
(§2) Stock solutions (10 mM) of the different compounds were made in DMSO. Cancer cells were seeded in tissue-treated, flat bottom, 384-well plates (Corning) according to their optimal density, (A549 1000 cells/wells; MDA-MB-231, HeLa and HT-29 2000 cells/well and finally Jurkat, HL-60 SEM and RS4;11 20.000 cells/well) in 27 µL of complete medium per well.
(§3) The day after cell seeding and immediately before cell treatment, 10 mM stock solutions of the compounds were pre-diluted to a […] concentration in 250 µL of Hank’s in a 96-well plate (Corning). Subsequent 1:5 dilutions were carried out using a microlab STAR 96-CORE liquid handling system (Hamilton), a robotized liquid handling tool that was employed for all steps, from cell seeding to drug dilution and cell treatment to ensure high reproducibility while reducing time for large screening execution. This pre-dilution step was necessary to avoid DMSO-related cytotoxicity and compound precipitation in the cell culture medium. In every case, DMSO concentration never exceeded 0.1%.
(§4) Positive (Bortezomib 1 µM) and negative (0.1% DMSO) controls were included in all the screened plates to allow for monitoring the Z’ factor throughout the entire screening. Cells were treated with 3 µL of the previously made dilutions; thus, generating a 6-point 5-fold dose–response curve starting from 10 µM. Within a plate, each drug concentration was tested in duplicate in two independent experiments for each compound.
(§5) Treated cells were then placed inside the CO2 incubator for 72 h at 37 °C. Cell viability was assessed by resazurin assay, in which 3 µL of resazurin per well were added using the previously described automated platform. Plates were placed in the incubator at 37 °C for 2 h, and then the fluorescence of each plate was read using a Spark 10 M multimode microplate reader (Tecan Group Ltd., Mannedorf, Switzerland) with 535 nm excitation wavelength and 600 nm emission wavelength.

Row | Structure (SMILES) | GI50 [nM]
5 | [Br-].[Br-].c1cc2c(N3CCCCC3)nc[n+](Cc3ccc(-c4ccc(C[n+]5cnc(N6CCCCC6)c6ccsc65)cc4)cc3)c2s1 [Fg-30] | > 10000
6 | CN(c1ccc(Cl)cc1)c1nc[n+](Cc2ccc(-c3ccc(C[n+]4cnc(N(C)c5ccc(Cl)cc5)c5ccsc54)cc3)cc2)c2sccc12 [Fp-8] | > 10000

These molecules were tested on HeLa (assay: Antiproliferative activity, resazurin assay, 72 h). Details: not given.
Type: cell-based, human
Description: as §1, §2, §3, §4, §5

Row | Structure (SMILES) | GI50 [nM]
7 | [Br-].[Br-].c1cc2c(N3CCCCC3)nc[n+](Cc3ccc(-c4ccc(C[n+]5cnc(N6CCCCC6)c6ccsc65)cc4)cc3)c2s1 [Fg-30] | 2890 ± 300
8 | CN(c1ccc(Cl)cc1)c1nc[n+](Cc2ccc(-c3ccc(C[n+]4cnc(N(C)c5ccc(Cl)cc5)c5ccsc54)cc3)cc2)c2sccc12 [Fp-8] | 1770 ± 100
9 | CN(C)c1cc[n+](Cc2ccc(CCCCc3ccc(C[n+]4ccc(N(C)C)cc4)cc3)cc2)cc1 [MN-48b, reference compound] | 1900 ± 100

Same assay, conditions: Homo sapiens, HeLa

Row | Structure (SMILES) | GI50 [nM]
10 | C/[N+](c1ccc(Cl)cc1)=c1\ccn(Cc2ccc(-c3ccc(Cn4cc/c(=[N+](/C)c5ccc(Cl)cc5)c5ccccc54)cc3)cc2)c2ccccc12 [RSM-932A, reference compound] | 830 ± 100

What follows are molecules tested on MDA-MB-231 (assay: Antiproliferative activity, resazurin assay, 72 h). Details: not given.
Type: cell-based, human
Description: as §1, §2, §3, §4, §5

Row | Structure (SMILES) | GI50 [nM]
11 | [Br-].[Br-].c1cc2c(N3CCCCC3)nc[n+](Cc3ccc(-c4ccc(C[n+]5cnc(N6CCCCC6)c6ccsc65)cc4)cc3)c2s1 [Fg-30] | 800 ± 20
12 | CN(c1ccc(Cl)cc1)c1nc[n+](Cc2ccc(-c3ccc(C[n+]4cnc(N(C)c5ccc(Cl)cc5)c5ccsc54)cc3)cc2)c2sccc12 [Fp-8] | 830 ± 40
13 | CN(C)c1cc[n+](Cc2ccc(CCCCc3ccc(C[n+]4ccc(N(C)C)cc4)cc3)cc2)cc1 [MN-48b, reference compound] | 310 ± 120

Same assay, conditions: Homo sapiens, MDA-MB-231

Row | Structure (SMILES) | GI50 [nM]
14 | C/[N+](c1ccc(Cl)cc1)=c1\ccn(Cc2ccc(-c3ccc(Cn4cc/c(=[N+](/C)c5ccc(Cl)cc5)c5ccccc54)cc3)cc2)c2ccccc12 [RSM-932A, reference compound] | 170 ± 50

These molecules were tested on Jurkat (assay: Antiproliferative activity, resazurin assay, 72 h). Details: not given.
Type: cell-based, human
Description: as §1, §2, §3, §4, §5

Row | Structure (SMILES) | GI50 [nM]
15 | [Br-].[Br-].c1cc2c(N3CCCCC3)nc[n+](Cc3ccc(-c4ccc(C[n+]5cnc(N6CCCCC6)c6ccsc65)cc4)cc3)c2s1 [Fg-30] | > 10000
16 | CN(c1ccc(Cl)cc1)c1nc[n+](Cc2ccc(-c3ccc(C[n+]4cnc(N(C)c5ccc(Cl)cc5)c5ccsc54)cc3)cc2)c2sccc12 [Fp-8] | > 10000
17 | CN(C)c1cc[n+](Cc2ccc(CCCCc3ccc(C[n+]4ccc(N(C)C)cc4)cc3)cc2)cc1 [MN-48b, reference compound] | 350 ± 100

Same assay, conditions: Homo sapiens, Jurkat

Row | Structure (SMILES) | GI50 [nM]
18 | C/[N+](c1ccc(Cl)cc1)=c1\ccn(Cc2ccc(-c3ccc(Cn4cc/c(=[N+](/C)c5ccc(Cl)cc5)c5ccccc54)cc3)cc2)c2ccccc12 [RSM-932A, reference compound] | 410 ± 100

These molecules were tested on HT29 (assay: Antiproliferative activity, resazurin assay, 72 h). Details: not given.
Type: cell-based, human
Description: as §1, §2, §3, §4, §5

Row | Structure (SMILES) | GI50 [nM]
19 | [Br-].[Br-].c1cc2c(N3CCCCC3)nc[n+](Cc3ccc(-c4ccc(C[n+]5cnc(N6CCCCC6)c6ccsc65)cc4)cc3)c2s1 [Fg-30] | 8320 ± 900
20 | CN(c1ccc(Cl)cc1)c1nc[n+](Cc2ccc(-c3ccc(C[n+]4cnc(N(C)c5ccc(Cl)cc5)c5ccsc54)cc3)cc2)c2sccc12 [Fp-8] | 3930 ± 500
21 | CN(C)c1cc[n+](Cc2ccc(CCCCc3ccc(C[n+]4ccc(N(C)C)cc4)cc3)cc2)cc1 [MN-48b, reference compound] | 1900 ± 400

Same assay, conditions: Homo sapiens, HT-29

Row | Structure (SMILES) | GI50 [nM]
22 | C/[N+](c1ccc(Cl)cc1)=c1\ccn(Cc2ccc(-c3ccc(Cn4cc/c(=[N+](/C)c5ccc(Cl)cc5)c5ccccc54)cc3)cc2)c2ccccc12 [RSM-932A, reference compound] | 400 ± 200

The molecules below were run on RS 4;11 (assay: Antiproliferative activity, resazurin assay, 72 h). Details: not given.
Type: cell-based, human
Description: as §1, §2, §3, §4, §5

Row | Structure (SMILES) | GI50 [nM]
23 | [Br-].[Br-].c1cc2c(N3CCCCC3)nc[n+](Cc3ccc(-c4ccc(C[n+]5cnc(N6CCCCC6)c6ccsc65)cc4)cc3)c2s1 [Fg-30] | > 10000
24 | CN(c1ccc(Cl)cc1)c1nc[n+](Cc2ccc(-c3ccc(C[n+]4cnc(N(C)c5ccc(Cl)cc5)c5ccsc54)cc3)cc2)c2sccc12 [Fp-8] | 3380 ± 50
25 | CN(C)c1cc[n+](Cc2ccc(CCCCc3ccc(C[n+]4ccc(N(C)C)cc4)cc3)cc2)cc1 [MN-48b, reference compound] | 1000 ± 300

Same assay, conditions: Homo sapiens, RS4-11

Row | Structure (SMILES) | GI50 [nM]
26 | C/[N+](c1ccc(Cl)cc1)=c1\ccn(Cc2ccc(-c3ccc(Cn4cc/c(=[N+](/C)c5ccc(Cl)cc5)c5ccccc54)cc3)cc2)c2ccccc12 [RSM-932A, reference compound] | 170 ± 40

These molecules were tested on A549 (assay: Antiproliferative activity, resazurin assay, 72 h). Details: not given.
Type: cell-based, human
Description: as §1, §2, §3, §4, §5

Row | Structure (SMILES) | GI50 [nM]
27 | [Br-].[Br-].c1cc2c(N3CCCCC3)nc[n+](Cc3ccc(-c4ccc(C[n+]5cnc(N6CCCCC6)c6ccsc65)cc4)cc3)c2s1 [Fg-30] | 600 ± 20
28 | CN(c1ccc(Cl)cc1)c1nc[n+](Cc2ccc(-c3ccc(C[n+]4cnc(N(C)c5ccc(Cl)cc5)c5ccsc54)cc3)cc2)c2sccc12 [Fp-8] | 160 ± 10
29 | CN(C)c1cc[n+](Cc2ccc(CCCCc3ccc(C[n+]4ccc(N(C)C)cc4)cc3)cc2)cc1 [MN-48b, reference compound] | 540 ± 200

Same assay, conditions: Homo sapiens, A549

Row | Structure (SMILES) | GI50 [nM]
30 | C/[N+](c1ccc(Cl)cc1)=c1\ccn(Cc2ccc(-c3ccc(Cn4cc/c(=[N+](/C)c5ccc(Cl)cc5)c5ccccc54)cc3)cc2)c2ccccc12 [RSM-932A, reference compound] | 450 ± 90

Each molecule was assayed on HL-60 (assay: Antiproliferative activity, resazurin assay, 72 h). Details: not given.
Type: cell-based, human
Description: as §1, §2, §3, §4, §5

Row | Structure (SMILES) | GI50 [nM]
31 | CN(c1ccc(Cl)cc1)c1nc[n+](Cc2ccc(-c3ccc(C[n+]4cnc(N(C)c5ccc(Cl)cc5)c5ccsc54)cc3)cc2)c2sccc12 [Fp-8] | 900 ± 80
32 | CN(C)c1cc[n+](Cc2ccc(CCCCc3ccc(C[n+]4ccc(N(C)C)cc4)cc3)cc2)cc1 [MN-48b, reference compound] | 320 ± 30

Same assay, conditions: Homo sapiens, HL-60

Row | Structure (SMILES) | GI50 [nM]
33 | C/[N+](c1ccc(Cl)cc1)=c1\ccn(Cc2ccc(-c3ccc(Cn4cc/c(=[N+](/C)c5ccc(Cl)cc5)c5ccccc54)cc3)cc2)c2ccccc12 [RSM-932A, reference compound] | 930 ± 100
